Where “and” joins values, the source holds several entries; their conditions need not be identical. Equal entries are not always repeated.
Key:
CT26 colon carcinoma = experiment: Antitumor activity in the CT26 colon tumor model; type: in vivo, mouse; settings: for % Complete Regressions/Total # mice: IP every 4 days x3, ixabepilone 8, paclitaxel 24, CTLA-4 mAb 20 mg/kg; for antitumor effect in words: text and FIG. 2
Method: (§1) Tumor cell lines were maintained in vitro. Treatments were initiated when the subcutaneous tumors reached a median size between 100-200 mm^3 (established model) or prior to detection (initiation model). Tumors were measured twice weekly and tumor size (mm^3) was calculated as (length×width^2)/2. Body weights were obtained weekly. The tumor models used in these studies are outlined in Table 1.
(§2) The dose levels, routes and dosing schedules are indicated for each particular study described below. Antibodies and chemotherapeutic agents were administered intraperitoneally (i.p.). Each treatment regimen consisted of a cohort of eight to ten mice. Anti-tumor activity, defined as percentage tumor growth inhibition, was calculated as follows: […]
Next, the antitumor effects of CTLA-4 mAb and nmicrotubule-stabilizing agents were studied in a model not sensitive to ixabepilone or paclitaxel, the CT26 colon carcinoma model.

SA1N fibrosarcoma = experiment: Antitumor activity in the SA1N fibrosarcoma tumor model; type: in vivo, mouse; settings: for % TGI: IP every 4 days x3; for CR/Total # mice: complete regressions; for T-C: target size 500 mm^3
Method: as §1
The dose levels, routes and dosing schedules are indicated for each particular study described below. Antibodies and chemotherapeutic agents were administered intraperitoneally (i.p.). Each treatment regimen consisted of a cohort of eight to ten mice. Anti-tumor activity, defined as percentage tumor growth inhibition, was calculated as follows:
% Tumor Growth Inhibition=100−[(Tt/To)/(Ct/Co)]/100−(Ct/Co)
(§3) In addition, another parameter used to define efficacy was to determine time to tumor progression to target size (T−C), where the time (days) for the median tumor size of control (C) mice to reach target size was subtracted to the time for median tumor size of treated (T) mice to reach target size.
SA1N fibrosarcoma is an inherently immunogenic tumor line which is sensitive to the effects of CTLA-4 blockade. Two studies were conducted to determine the effect of CTLA-4 blockade in combination with ixabepilone or paclitaxel in this tumor model (see Table 1). Animals were implanted with SA1N cells subcutaneously and treatments were initiated when tumors reached 100-150 mm^3. Experimental groups consisted of cohorts of 8 mice. Ixabepilone, paclitaxel and CTLA-4 mab were administered intraperitoneally (IP) every 4 days for 3 doses. In the combination groups, CTLA-4 mab was administered one day after each chemotherapy treatment.

M109 lung carcinoma [1] = experiment: Antitumor activity in the M109 lung carcinoma tumor model; type: in vivo, mouse; settings: for % Tumor-Free Mice after Initial Tumor Implantation: Study 40, footnote: percentage of animals that develop tumors following implantation on Day 0
Method: as §1, §2
The antitumor effects of CTLA-4 mAb and microtubule-stabilizing agents were also studied in the M109 lung carcinoma model, a tumor line which is not sensitive to the effect of CTLA-4 blockade. In these studies treatments with chemotherapeutic agents were initiated when tumors were palpable, on day 3 after tumor implantation. This regimen was selected to produce a measurable antitumor effect, which was not observed when treatments were initiated at a later time. As in the studies conducted in the SA1N and EMT-6 tumor lines, CTLA-4 mAb was dosed one day after treatment with chemotherapy.

EMT-6 mammary carcinoma = experiment: Antitumor activity in the EMT-6 mammary tumor model; type: in vivo, mouse; settings: for % Tumor-free Mice / T-C: Study 27; for T-C: treatment from day 3/4, every 4 days x3 IP, ixabepilone 8, paclitaxel 24, CTLA-4 mAb 20 mg/kg
Method: as §1, §2, §3

[2] = test system: A2780, HCT116, LS174T, HCT116/VM46, Pat-7, A2780Tax, Pat-21 tumor models; experiment: Preclinical pharmacology studies of Compound 1 in tumor models; type: in vivo
M109 lung carcinoma [3] = experiment: M109 tumor rechallenge of tumor-free mice; type: in vivo, mouse
From the text: To determine whether the combination of CTLA-4+ixabepilone produced a memory immune response able to reject a secondary tumor challenge, animals free of tumors by day 97 were re-challenge with a lethal M109 cell inoculum.

[4] = test system: SA1N fibrosarcoma, M109 lung carcinoma, EMT-6 mammary carcinoma, CT-26 colon carcinoma and B16 melanoma; experiment: Efficacy studies across murine tumor lines (summary); type: in vivo, mouse; settings: animals with complete regressions rechallenged with lethal dose of tumor cells
Method: Efficacy studies were conducted in 3 different tumor lines implanted in immunocompetent mice: SAlN fibrosarcoma, MI09 lung carcinoma and EMT-6 mammary carcinoma. […] For the combination group, anti-CTLA-4 mAb was administered one day after each ixabepilone treatment. In selected studies, animals with complete tumor regressions were rechallenged with a lethal dose of tumor cells to determine the level of immune protection. In other studies, the combined efficacy of CTLA-4 mAb+ixabepilone was compared directly with CTLA-4 InAb+paclitaxel.
The effect of an anti-mouse CTLA-4 blocking antibody, the murine homolog of ipilimumab, was evaluated in multiple murine tumor models in combination with the microtubule-stabilizing agents paclitaxel (TAXOL®), and ixabepilone (IXEMPRA®). Efficacy studies were conducted in 5 different tumor lines: SA1N fibrosarcoma, M109 lung carcinoma, EMT-6 mammary carcinoma, CT-26 colon carcinoma and B16 melanoma. Ixabepilone, paclitaxel and CTLA-4 mAb were administered at their optimal dose and schedule: ixabepilone, 8 mg/kg; paclitaxel, 24 mg/kg, CTLA-4 mAb, 20 mg/kg every 4 days for 3 doses. For the combination group, anti-CTLA-4 mAb was administered one day after each ixabepilone or paclitaxel treatment. In selected studies, animals with complete tumor regressions were rechallenged with a lethal dose of tumor cells to determine the level of immune protection.

[5] = Study 17, calculated Day 33, ixabepilone 8, paclitaxel 24, CTLA-4 mAb 20 mg/kg
[6] = Study 17, study terminated day 116

5beta,20-Epoxy-1,2alpha,4,7beta, 10beta, 13alpha-hexahydroxytax-11-en-9-one 4,10-diacetate 2-benzoate 13-ester with (2R,3S)—N-benzoyl-3-phenylisoserine [Paclitaxel]
% Complete Regressions/Total # mice (CT26 colon carcinoma): 0/10 | antitumor effect in words (CT26 colon carcinoma): neither paclitaxel or ixabepilone produced any measurable antitumor activity | % TGI (SA1N fibrosarcoma; Study 11, calculated Day 34, paclitaxel 24, CTLA-4 mAb 20 mg/kg): 88% | CR/Total # mice (SA1N fibrosarcoma; Study 11): 3/8 | T-C (SA1N fibrosarcoma; Study 11, study terminated day 52): 13 days | % TGI (SA1N fibrosarcoma; [5]): 0% | CR/Total # mice (SA1N fibrosarcoma; Study 17): 0/8 | T-C (SA1N fibrosarcoma; [6]): 0 days | antitumor effect in words (SA1N fibrosarcoma; both SA1N studies): variable effect | antitumor effect in words (M109 lung carcinoma [1]; FIG. 1): did not produce antitumor effects | % Tumor-Free Mice after Initial Tumor Implantation (M109 lung carcinoma [1]): 100% | antitumor effect in words (EMT-6 mammary carcinoma): ineffective | % Tumor-free Mice (EMT-6 mammary carcinoma): 0% | T-C (EMT-6 mammary carcinoma): 0 days

C/C(=C\c1csc(C)n1)[C@@H]1C[C@@H]2O[C@]2(C)CCC[C@H](C)[C@H](O)[C@@H](C)C(=O)C(C)(C)[C@@H](O)CC(=O)N1 (relative stereo) [Compound 1, [1S-[1R*,3R*(E),7R*,10S*,11R*,12R*,16S*]]-7,11-dihydroxy-8,8,10,12,16-pentamethyl-3-[1-methyl-2-(2-methyl-4-thiazolyl)ethenyl]-4-aza-17-oxabicyclo[14.1.0]heptadecane-5,9-dione]
oral efficacy in words ([2]; oral vs parenteral administration): orally efficacious | antitumor activity in words ([2]; paclitaxel-sensitive and paclitaxel-resistant human tumor models): very impressive and broad spectrum of antitumor activity

C/C(=C\c1csc(C)n1)[C@@H]1C[C@@H]2O[C@]2(C)CCC[C@H](C)[C@H](O)[C@@H](C)C(=O)C(C)(C)[C@@H](O)CC(=O)N1 [Ixabepilone, (1S,3S,7S,10R,11S,12S,16R)-7,11-dihydroxy-8,8,10,12,16-pentamethyl-3-[(1E)-1-methyl-2-(2-methyl-4-thiazolyl)ethenyl]-17-oxa-4-azabicyclo[14.1.0]heptadecane-5,9-dione]
% Complete Regressions/Total # mice (CT26 colon carcinoma): 0/10 | antitumor effect in words (CT26 colon carcinoma): neither paclitaxel or ixabepilone produced any measurable antitumor activity | CR/Total # mice, percentage in parentheses (% CR) (SA1N fibrosarcoma; Study 9): (37.5) % | % TGI (SA1N fibrosarcoma; Study 9, calculated Day 36, ixabepilone 8 mg/kg, CTLA-4 mAb 20 mg/kg): 92% | CR/Total # mice (SA1N fibrosarcoma; Study 9): 3 out of 8 and 3/8 | T-C (SA1N fibrosarcoma; Study 9, study terminated day 39): 11 days | CR/Total # mice, percentage in parentheses (% CR) (SA1N fibrosarcoma; Study 17): (0) % | % TGI (SA1N fibrosarcoma; [5]): 83% | CR/Total # mice (SA1N fibrosarcoma; Study 17): 0/8 | T-C (SA1N fibrosarcoma; [6]): 7 days | treated animals in which tumor growth was inhibited (M109 lung carcinoma [1]): 50% | % Tumor-Free Mice after Initial Tumor Implantation (M109 lung carcinoma [1]): 50% | % mice developing tumors after rechallenge (M109 lung carcinoma [3]; Study 40, footnote: percentage of mice that develop tumors after tumor rechallenge on Day 95): 75% | mice that developed tumors after rechallenge, percent (M109 lung carcinoma [3]; tumor-free mice re-challenged with lethal M109 inoculum): 80% | mice that developed tumors after rechallenge (M109 lung carcinoma [3]; tumor-free mice re-challenged with lethal M109 inoculum, count): 4 out of 5 | % Tumor-free Mice (EMT-6 mammary carcinoma): 20% | T-C (EMT-6 mammary carcinoma): 19 days | protection against tumor rechallenge in words [4]: only partial protection

— patent US20140323533A1, “COMBINATION OF ANTI-CTLA4 ANTIBODY WITH TUBULIN MODULATING AGENTS FOR THE TREATMENT OF PROLIFERATIVE DISEASES” (BRISTOL-MYERS SQUIBB COMPANY, priority 2013, published 2014)
